Source: US5455242A, “Carboxyalkyl tricyclic derivatives useful as inhibitors of enkephalinase and ace” (Merrell Dow Pharmaceuticals Inc., priority 1993, dated 1995)

Biological target: T1, Enkephalinase (Rattus norvegicus, UniProt P07861)
T1 construct: Enkephalinase is partially purified from rat kidney; from tissue; host or cells: rat kidney (microvilli fraction)
T1 sequence (P07861 1-750): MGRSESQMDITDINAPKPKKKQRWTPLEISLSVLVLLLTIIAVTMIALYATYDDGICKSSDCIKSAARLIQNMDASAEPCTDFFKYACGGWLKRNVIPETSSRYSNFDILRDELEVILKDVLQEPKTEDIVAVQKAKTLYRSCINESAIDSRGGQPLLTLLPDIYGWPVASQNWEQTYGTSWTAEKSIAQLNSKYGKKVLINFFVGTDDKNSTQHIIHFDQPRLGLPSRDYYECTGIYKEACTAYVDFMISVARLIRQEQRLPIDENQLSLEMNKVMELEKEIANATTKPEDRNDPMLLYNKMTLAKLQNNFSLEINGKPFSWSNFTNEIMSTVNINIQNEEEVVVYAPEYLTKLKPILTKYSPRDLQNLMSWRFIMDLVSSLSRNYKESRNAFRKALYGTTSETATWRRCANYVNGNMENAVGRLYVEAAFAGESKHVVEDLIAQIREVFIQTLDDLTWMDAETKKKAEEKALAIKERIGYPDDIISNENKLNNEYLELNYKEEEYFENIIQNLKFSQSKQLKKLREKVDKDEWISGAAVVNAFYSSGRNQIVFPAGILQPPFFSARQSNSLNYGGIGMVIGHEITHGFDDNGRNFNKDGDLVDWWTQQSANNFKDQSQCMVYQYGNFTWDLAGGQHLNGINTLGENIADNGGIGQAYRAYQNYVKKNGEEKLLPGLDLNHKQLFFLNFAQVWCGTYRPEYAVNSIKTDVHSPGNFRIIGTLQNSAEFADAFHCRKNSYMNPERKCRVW
Assay: Enkephalinase inhibition (fluorometric assay, enzyme partially purified from rat kidney)
Format: biochemical
Conditions: 50 mM HEPES pH 7.4, 25° C., 12 μM dansyl-D-AlaGly(p-nitro)PheGly
From the text: Enkephalinase is partially purified from rat kidney. The enzyme is extracted from the microvilli fraction by using Triton X-100 according to the method of Malfroy and Schwartz [J. Biol. Chem. 259, 14365-14370 (1984)]or by using a proteolytic treatment according to the method of Almenoff and Orlowski [Biochem. 22, 590-599 (1983)]. The enzyme is further purified by anion exchange chromatography (Mono Q™ column, Pharmacia) using a Pharmacia FPLC system. The enzyme activity may be measured by the fluorometric methods of Florentin et al. [Anal. Biochem. 141, 62-69 (1984)]or of Almenoff and Orlowski [J. Neurochemistry 42, 151-157 (1984)]. The enzyme is assayed in 50 mM HEPES buffer (pH 7.4) in a 3.0 mL reaction volume containing 12 μM of the substrate dansyl-D-AlaGly(p-nitro)PheGly(Km =40 μM) at 25° C. The substrate (and inhibitor) is added from a concentrated stock solution in DMSO (up to 0.1 mL DMSO final volume). The enzyme in a small volume (approximately 0.1 μg of FPLC purified protein) is added to initiate the reaction and the rate of fluorecense increase is recorded continuously using a fluorometer (excitation at 339 nm, emission at 562 nm).

O=C(O)CC(Cc1ccccc1)C(=O)N[C@H]1Cc2ccccc2[C@H]2CCC[C@@H](C(=O)O)N2C1=O (stereo partly drawn) [101,287, [4S-[4α, 7α(R*), 12bβ]]-7-[(1-Oxo-2-carboxymethyl-3-phenylpropyl)amino]-1,2,3,4,6,7,8,12b-octahydro-6-oxopyrido[2,1-a][2]benzazepine-4-carboxylic acid]
Ki: 5 nM
